This assay has as its system G. duodenalis BRIS/91/HEPU/1279. Description: Primary Giardia screen at 10 µM (live-cell imaging, automated counting). The assay is classed as cell-based, Giardia duodenalis. Conditions: for % Inhibition n=1 24h / % Inhibition n=1 48h: first singlicate assay; for % Inhibition n=2 24h / % Inhibition n=2 48h: re-assessment. The method, boiled down: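 Singlicate, 10 μM final, 0.2% DMSO; sealed chambers, 3% O2/5% CO2/N2. Counts by live-cell imaging at 24 h and 48 h. % growth vs vehicle, media background subtracted; Z' per plate.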

These results are taken from publication PMC9775191, “A Subset Screen of the Compounds Australia Scaffold Library Identifies 7-Acylaminodibenzoxazepinones as Potent and Selective Hits for Anti-Giardia Drug Discovery” (Biomedicines, 2022).

Turning to `CCN(CC)C(=O)C1CSCN1C(=O)c1cc(C)nc2c1nc1n2CCCCC1` (stereo not drawn) [SN00779876], the “Average % Inhibition 24h” value was determined as 1.0%, the “% Inhibition n=1 24h” value is 1.9%, the “% Inhibition n=2 24h” value came out at 0.0% and the “Average % Inhibition 48h” value is listed as 31.1%. For the same compound, the “% Inhibition n=1 48h” value was found to be 62.1% and the “% Inhibition n=2 48h” value was 0.0%.
Take `O=c1c2ccsc2ncn1Cc1noc(-c2ccsc2)n1` [SN00779979]: the “% Inhibition n=1 48h” value is 0.0%.
With `Cc1ccc(C)c(NC(=O)Cc2nc(Cn3cnc([N+](=O)[O-])c3)cs2)c1` [SN00779996], the “Average % Inhibition 24h” value came out at 8.5%, the “% Inhibition n=1 24h” value came to 0.0%, the “% Inhibition n=2 24h” value turned out to be 16.9% and the “Average % Inhibition 48h” value turned out to be 59.9%. Further, the “% Inhibition n=1 48h” value was 47.9% and the “% Inhibition n=2 48h” value is given as 71.9%.
In the case of `O=C1CCCN1CC1CCCCN1c1cc(Cl)c(C(F)(F)F)cc1[N+](=O)[O-]` (stereo not drawn) [SN00780038], the “% Inhibition n=1 48h” value came to 9.6%.
On the same count and under the same terms, then `CN1C(=O)CC(C(=O)NNC(=O)COc2ccccc2-c2ccccc2)C1c1cccnc1` (stereo not drawn) [SN00780071], with 9.4%; and `O=C(c1ccc[nH]c1=S)N1CCCC(CN2CCN(c3ccccn3)CC2)C1` (stereo not drawn) [SN00780166], with 0.0%.
`Cc1cc(N2C(=O)C(O)=C(C(=O)c3ccc(Cl)cc3)C2c2ccc([N+](=O)[O-])cc2)no1` (stereo not drawn) [SN00780175]: the “Average % Inhibition 24h” value was 6.4%, the “% Inhibition n=1 24h” value was 12.8%, the “% Inhibition n=2 24h” value came out at 0.0% and the “Average % Inhibition 48h” value was 29.6%. The “% Inhibition n=1 48h” value is given as 59.1% and the “% Inhibition n=2 48h” value was found to be 0.0%.
For `COc1ccc(OC)c(C2C(C(=O)c3ccco3)=C(O)C(=O)N2c2cc(C)on2)c1` (stereo not drawn) [SN00780182], the “% Inhibition n=1 48h” value stood at 21.6%.
Same read-out and setting: in the case of `O=C(CCNS(=O)(=O)c1cccnc1)N1CCCC(c2nc3ccccc3o2)C1` (stereo not drawn) [SN00780535] it was 0.0%.
On the same count and under the same terms, then `O=C1OCCN1CCCN1CCCC(c2nc3ccccc3o2)C1` (stereo not drawn) [SN00780555], with 0.0%; and `CCOc1ccccc1OC1CCN(c2ncnc3nc[nH]c23)CC1` [SN00780570], with 31.1%.
On the same count and under the same terms, in the case of `Cc1ccc(C)c(OC2CCN(c3ncnc4nc[nH]c34)CC2)c1` [SN00780571] it was 12.5%; in that of `Cc1nc(CN2CCN(C(=O)c3c(C)c(C)n[nH]c3=O)CC2)cs1` [SN00780594], 0.0%.
For the compound `C=CCc1ccc(OCC(O)CN2C(=O)NC(C)(c3ccccn3)C2=O)c(OC)c1` (stereo not drawn) [SN00780622], the “% Inhibition n=1 48h” value is 48.2%.
On to `COC(=O)c1c(C(=O)OC)c(-c2ccc(NS(=O)(=O)c3ccc(C)s3)cc2)n2c1CCC2` [SN00780656], for which the “% Inhibition n=1 48h” value is 9.3%.
With `CC(C)(C)c1nc(CN2CCCN(C(=O)CCCNC(=O)NC3CCCCC3)CC2)no1` [SN00780682], the “% Inhibition n=1 48h” value turned out to be 11.6%.
As for `Cc1ccc(C)c(NC(=O)N2CCC(c3c[nH]c4ncccc34)CC2)c1` [SN00780701], the “% Inhibition n=1 48h” value amounted to 0.0%.
For `c1ccc(CCN2CCC(c3c[nH]c4ncccc34)CC2)nc1` [SN00780706], the “% Inhibition n=1 48h” value was 11.5%.
As for `CCCc1cc(N2CCOCC2)n2nc(C)c(-c3ccccc3)c2n1` [SN00780810], the “% Inhibition n=1 48h” value is given as 20.2%.
In the case of `O=C(C1CC=CCC1)N1CCN(S(=O)(=O)c2c[nH]c3ncccc23)CC1` (stereo not drawn) [SN00781077], the “% Inhibition n=1 48h” value is given as 7.5%.
Still for that read-out and setting: then `CCCCC(=O)N1CCN(S(=O)(=O)c2c[nH]c3ncccc23)CC1` [SN00781078], with 2.4%.
For `O=C(Cc1ccccc1Cl)NCCc1noc(-c2ccccn2)n1` [SN00781138], the “% Inhibition n=1 48h” value worked out at 21.7%.
Regarding `CNC(=O)Cc1noc(-c2cccc(-n3cccn3)n2)n1` [SN00781149], the “% Inhibition n=1 48h” value is reported as 4.9%.
On the same count and under the same terms, in the case of `O=S(=O)(Cc1ccc(C(F)(F)F)cc1)Cc1noc(C2CC2)n1` [SN00781153] it was 0.0%.
